In paper PMC9127163, “Lysosomal Targeted Cyclometallic Iridium(Ⅲ) Salicylaldehyde-Coumarin Schiff Base Complexes and Anticancer Application” (Frontiers in Chemistry, 2022):

Legend:
Assay type in all cases: cell-based, human
[1] = system: A549 cells; test: MTT cytotoxicity assay, A549 cells; conditions: 24 h
Text: (§1) MTT assay was utilized to evaluate the anticancer activity of Ir1-Ir6 toward A549 cells (human non-small cell lung cancer cells, one of the deadliest types of cancer in both developing and developed countries) along with cisplatin (metal anticancer drug widely used in clinic) as a control and compared with the cytotoxicity against noncancerous BEAS-2B cells (epithelial cells isolated from pathological sections of normal bronchial epithelium from non-cancerous individuals). […] Additionally, the substitution sites of coumarin (6- and 7-) have little effect on these complexes, however, the peripheral substituents show a significant effect on the structure−activity. […] In addition, the data is even better than the reported traditional cyclometallic Ir^III complexes (usually depicted as [(ppy)2Ir (L^L)], L^L = N^N, C^N, C^O, O^N, P^P, etc., Supplementary Table S3). […]
(§2) After plating 5000 cells per well in 96-well plates, the cells were preincubated in drug-free media at 310 K for 24 h before adding different concentrations of drugs to be tested. […] Afterwards, 100 μL of DMSO was transferred into each well to dissolve the purple formazan, and results were measured using a microplate reader (DNM-9606, Perlong Medical, Beijing, China) at an absorbance of 570 nm. […]

[2] = system: BEAS-2B cells; test: MTT cytotoxicity assay, BEAS-2B cells; conditions: 24 h
Text: as §1, §2

[3] = system: A549 cells; test: Mitochondrial membrane potential (JC-1) flow cytometry, A549 cells; conditions: A549, positive control CCCP (5 μM), 20 min
Text: Mitochondria, the main intracellular energy source, play an important role in the process of apoptosis. Disruption of mitochondrial membrane potential (MMP) is usually identified as the early signals of cell apoptotic. JC-1, a liphile cationic fluorescent dye, is generally used to detect the change of MMP, and it emits strong red fluorescence in the normal mitochondrial matrix and green fluorescence after depolarization activation in apoptotic cells ([Antonicka et al., 2017]). In this study, flow cytometry was utilized to analyze this change after the treatment of Ir2 at a gradient concentration. […] In addition, intracellular reactive oxygen species (ROS) is mainly produced and stored in mitochondria, and the accumulation of intracellular ROS can lead to apoptosis ([Romero-Canelón et al., 2015]). A549 and BEAS-2B cells were stained with DCFH-DA after incubated with Ir2 (1.0 × IC50 and 2.0 × IC50) for 24 h (Figure 8B). The intracellular ROS levels increased in a dose-dependent manner. […]
(§3) Analysis of the changes of mitochondrial potential in cells after exposure to Ir2 were carried out using the mitochondrial membrane potential assay kit with JC-1 (Beyotime Institute of Biotechnology, Shanghai, China) according to the manufacturer’s instructions. […] The samples were immediately analyzed by a flow cytometer (ACEA NovoCyte, Hangzhou, China). […]

[4] = system: BEAS-2B cells; test: Mitochondrial membrane potential (JC-1) flow cytometry, BEAS-2B cells; conditions: positive control CCCP (5 μM), 20 min
Text: Mitochondria, the main intracellular energy source, play an important role in the process of apoptosis. Disruption of mitochondrial membrane potential (MMP) is usually identified as the early signals of cell apoptotic. JC-1, a liphile cationic fluorescent dye, is generally used to detect the change of MMP, and it emits strong red fluorescence in the normal mitochondrial matrix and green fluorescence after depolarization activation in apoptotic cells ([Antonicka et al., 2017]). In this study, flow cytometry was utilized to analyze this change after the treatment of Ir2 at a gradient concentration. […] In addition, intracellular reactive oxygen species (ROS) is mainly produced and stored in mitochondria, and the accumulation of intracellular ROS can lead to apoptosis ([Romero-Canelón et al., 2015]). A549 and BEAS-2B cells were stained with DCFH-DA after incubated with Ir2 (1.0 × IC50 and 2.0 × IC50) for 24 h (Figure 8B). The intracellular ROS levels increased in a dose-dependent manner.
as §3

Row | Compound | IC50 [1] [µM] | IC50 [2] [µM] | Percentage (%) JC-1 Aggregates [3] [%] | Percentage (%) JC-1 Monomers (depolarized cells) [3] [%] | Percentage (%) JC-1 Aggregates [4] [%] | Percentage (%) JC-1 Monomers [4] [%]
1 | N.N.[Cl][Pt][Cl] [Cisplatin, reference compound] | 21.3 ± 1.7 | 38.4 ± 2.8 | – | – | – | –
2 | N#CC(C#N)=NNc1cccc(Cl)c1 [Positive Control, carbonyl cyanide 3-chlorophenylhydrazone, reference compound] | – | – | 22.63±0.55 | 77.37±0.55 | 11.60±0.51 | 88.40±0.33
